In a polymer gas permeability compilation:

| Compound | CH4 permeability | CO2 permeability | H2 permeability | N2 permeability | O2 permeability |
| --- | --- | --- | --- | --- | --- |
| */C(C)=C(/*)[Si](C)(C)CCC (repeat unit) | 44 Barrer | 230 Barrer | 250 Barrer | 21 Barrer | 70 Barrer |
| *C(=C(*)c1ccc([Si](C)(C)C)cc1)c1ccccc1 (repeat unit) | 1550 Barrer | 4700 Barrer | 2600 Barrer | 550 Barrer | 1200 Barrer |
| *C(=C(*)c1ccc2c(c1)C(C)(C)C(C)(C)C2(C)C)c1ccccc1 (repeat unit) | 24700 Barrer | 35800 Barrer | 23600 Barrer | 10200 Barrer | 12700 Barrer |
| *Oc1ccc(C(c2ccc(Oc3ccc(S(=O)(=O)c4ccc(*)cc4)cc3)cc2)c2ccccc2C(=O)O)cc1 (repeat unit) | 0.0395 Barrer | 2.25 Barrer | 7.22 Barrer | 0.0437 Barrer | 0.441 Barrer |
| *Oc1ccc(C2(c3ccc(OC(=O)c4cc(C(*)=O)cc(C(C)(C)C)c4)cc3)OC(=O)c3ccccc32)cc1 (repeat unit) | 1.16 Barrer | 23.8 Barrer | 41.3 Barrer | 1.06 Barrer | 5.6 Barrer |
| *Oc1ccc(C2(c3ccc(OC(=O)c4cccc(C(*)=O)c4)cc3)OC(=O)c3ccccc32)cc1 (repeat unit) | 0.251 Barrer | 7.87 Barrer | 17.2 Barrer | 0.303 Barrer | 1.78 Barrer |
| *Oc1ccc(C2(c3ccc(OC(=O)c4cccc(C(*)=O)c4)cc3)c3ccccc3-c3ccccc32)cc1 (repeat unit) | 0.71 Barrer | 20.1 Barrer | – | 0.64 Barrer | 3.92 Barrer |
| *Oc1ccc(C2(c3ccc(Oc4ccc(S(=O)(=O)c5ccc(*)cc5)cc4)cc3)C3CC4CC(C3)CC2C4)cc1 (repeat unit) | 0.327 Barrer | 7.2 Barrer | 17.3 Barrer | 0.332 Barrer | 1.86 Barrer |
| *Oc1ccc(C2(c3ccc(Oc4ccc(S(=O)(=O)c5ccc(*)cc5)cc4)cc3)OC(=O)c3ccccc32)cc1 (repeat unit) | 0.143 Barrer | 5.74 Barrer | 10.1 Barrer | 0.17 Barrer | 1.2 Barrer |
| *Oc1ccc(Cc2ccc(Oc3ccc(S(=O)(=O)c4ccc(*)cc4)cc3)cc2)cc1 (repeat unit) | 0.19 Barrer | 4.5 Barrer | 10.4 Barrer | 0.2 Barrer | 1.1 Barrer |
| *Oc1ccc(Oc2ccc(C(=O)c3ccc(*)cc3)cc2)c(-c2cc(C(F)(F)F)cc(C(F)(F)F)c2)c1 (repeat unit) | 0.38 Barrer | 8.7 Barrer | 21 Barrer | 0.54 Barrer | 3.3 Barrer |
| *Oc1ccc(Oc2ccc(C(=O)c3ccc(*)cc3)cc2)c(-c2cc(C)cc(C)c2)c1 (repeat unit) | 0.05 Barrer | 1.6 Barrer | 4.6 Barrer | 0.053 Barrer | 0.33 Barrer |
| *Oc1ccc(Oc2ccc(C(=O)c3ccc(*)cc3)cc2)c(-c2cccc(C(F)(F)F)c2)c1 (repeat unit) | 0.041 Barrer | 1.5 Barrer | 5.1 Barrer | 0.051 Barrer | 0.38 Barrer |
| *Oc1ccc(Oc2ccc(C(=O)c3ccc(*)cc3)cc2)c(-c2cccc(C)c2)c1 (repeat unit) | 0.024 Barrer | 1 Barrer | 3.8 Barrer | 0.029 Barrer | 0.2 Barrer |
| *Oc1ccc(Oc2ccc(C(=O)c3ccc(*)cc3)cc2)cc1 (repeat unit) | 0.0311 Barrer | 0.963 Barrer | – | 0.0398 Barrer | 0.259 Barrer |
| *Oc1ccc(Oc2ccc(C(=O)c3ccc(*)cc3)cc2)cc1C(C)(C)C (repeat unit) | 0.221 Barrer | 4.65 Barrer | – | 0.217 Barrer | 1.39 Barrer |
| *Oc1ccc(Oc2ccc(Oc3ccc(S(=O)(=O)c4ccc(*)cc4)cc3)cc2)cc1 (repeat unit) | 0.18 Barrer | 4.3 Barrer | 15 Barrer | 0.196 Barrer | 1.1 Barrer |
| *Oc1ccc(Oc2cccc(*)c2C#N)c(-c2cc(C(F)(F)F)cc(C(F)(F)F)c2)c1 (repeat unit) | 0.83 Barrer | 19 Barrer | 35 Barrer | 1.12 Barrer | 6.6 Barrer |
| *Oc1ccc(Oc2cccc(*)c2C#N)c(-c2cc(C)cc(C)c2)c1 (repeat unit) | 0.06 Barrer | 3.5 Barrer | 9.6 Barrer | 0.17 Barrer | 0.94 Barrer |
| *Oc1ccc(Oc2cccc(*)c2C#N)c(-c2cccc(C(F)(F)F)c2)c1 (repeat unit) | 0.09 Barrer | 3.7 Barrer | 9.3 Barrer | 0.15 Barrer | 0.87 Barrer |
| *Oc1ccc(Oc2cccc(*)c2C#N)c(-c2cccc(C)c2)c1 (repeat unit) | 0.05 Barrer | 1.9 Barrer | 6.8 Barrer | 0.07 Barrer | 0.45 Barrer |

| Compound | CH4 permeability | CO2 permeability | H2 permeability | N2 permeability | O2 permeability |
| --- | --- | --- | --- | --- | --- |
| *Oc1ccc(S(=O)(=O)c2ccc(-c3ccc(S(=O)(=O)c4ccc(Oc5ccc(C(C)(C)c6ccc(*)cc6)cc5)cc4)cc3)cc2)cc1 (repeat unit) | 0.5 Barrer | 10.8 Barrer | 20.1 Barrer | 0.469 Barrer | 2.39 Barrer |
| *Oc1ccc(S(=O)(=O)c2ccc(Oc3c(C)cc(-c4cc(C)c(*)c(C)c4)cc3C)cc2)cc1 (repeat unit) | 1.27 Barrer | 31.8 Barrer | – | 1.21 Barrer | 5.8 Barrer |
| *Oc1ccc(S(=O)(=O)c2ccc(Oc3c(C)cc(C(C)(C)c4cc(C)c(*)c(C)c4)cc3C)cc2)cc1 (repeat unit) | 0.522 Barrer | 21 Barrer | 15.5 Barrer | 1.06 Barrer | 5.6 Barrer |
| *Oc1ccc(S(=O)(=O)c2ccc(Oc3ccc(-c4ccc(*)cc4)cc3)cc2)cc1 (repeat unit) | 0.255 Barrer | 5.6 Barrer | – | 0.236 Barrer | 1.3 Barrer |
| *Oc1ccc(S(=O)(=O)c2ccc(Oc3ccc(C(C)(C)c4ccc(*)c(C)c4)cc3C)cc2)cc1 (repeat unit) | 0.0706 Barrer | 2.1 Barrer | – | 0.0914 Barrer | 0.64 Barrer |
| *Oc1ccc(S(=O)(=O)c2ccc(Oc3ccc(C(C)(C)c4ccc(*)cc4)cc3CN)cc2)cc1 (repeat unit) | 0.11 Barrer | 1.95 Barrer | – | 0.11 Barrer | 0.7 Barrer |
| *Oc1ccc(S(=O)(=O)c2ccc(Oc3ccc(C(C)(C)c4ccc(*)cc4)cc3CN3C(=O)c4ccccc4C3=O)cc2)cc1 (repeat unit) | 0.08 Barrer | 2.12 Barrer | – | 0.08 Barrer | 0.54 Barrer |
| *Oc1ccc(S(=O)(=O)c2ccc(Oc3ccc(C(C)(C)c4ccc(*)cc4)cc3N)cc2)cc1 (repeat unit) | 0.12 Barrer | 2.95 Barrer | – | 0.12 Barrer | 0.745 Barrer |
| *Oc1ccc(S(=O)(=O)c2ccc(Oc3ccc(C(C)(C)c4cccc(*)c4)cc3)cc2)cc1 (repeat unit) | 0.0432 Barrer | 1.5 Barrer | – | 0.0661 Barrer | 0.39 Barrer |
| *Oc1ccc(S(=O)(=O)c2ccc(Oc3ccc(C(C)(c4ccccc4)c4ccc(*)cc4)cc3)cc2)cc1 (repeat unit) | 0.32 Barrer | 8.12 Barrer | – | 0.278 Barrer | 1.56 Barrer |
| *Oc1ccc(S(=O)(=O)c2ccc(Oc3ccc(C4(c5ccc(*)cc5)c5ccccc5-c5ccccc54)cc3)cc2)cc1 (repeat unit) | 0.531 Barrer | 13.8 Barrer | – | 0.484 Barrer | 2.76 Barrer |
| *Oc1ccc(S(=O)(=O)c2ccc(Oc3cccc4c(*)cccc34)cc2)cc1 (repeat unit) | 0.0364 Barrer | 1.6 Barrer | 8.1 Barrer | 0.0568 Barrer | 0.42 Barrer |
| *Oc1ccc2c(c1)C1(CC2(C)C)CC(C)(C)c2ccc(OC(=O)c3cccc(C(*)=O)c3)cc21 (repeat unit) | 1.14 Barrer | 18.9 Barrer | – | 1 Barrer | 5.31 Barrer |
| *Oc1ccc2c(c1)C1(CC2(C)C)CC(C)(C)c2ccc(Oc3ccc4c(c3)C(=O)N(c3cccc(N5C(=O)c6ccc(*)cc6C5=O)c3)C4=O)cc21 (repeat unit) | 0.155 Barrer | 4.5 Barrer | – | 0.203 Barrer | 1.4 Barrer |
| *Oc1cccc(C(C)(C)c2ccc(Oc3ccc(S(=O)(=O)c4ccc(*)cc4)cc3)cc2)c1 (repeat unit) | 0.052 Barrer | 1.5 Barrer | 8 Barrer | 0.066 Barrer | 0.39 Barrer |
| *Oc1cccc2c(Oc3ccc(S(=O)(=O)c4ccc(*)cc4)cc3)cccc12 (repeat unit) | 0.036 Barrer | 1.6 Barrer | – | 0.057 Barrer | 0.42 Barrer |
| *c1c(C)c(C)c(N2C(=O)c3cc4c(cc3C2=O)C2(CC(C)(C)c3cc5c(cc32)C(=O)N(*)C5=O)CC4(C)C)c(C)c1C (repeat unit) | 390 Barrer | 3940 Barrer | 1920 Barrer | 257 Barrer | 722 Barrer |
| *c1c(C)c(C)c(N2C(=O)c3ccc(C(c4ccc5c(c4)C(=O)N(*)C5=O)(C(F)(F)F)C(F)(F)F)cc3C2=O)c(C)c1C (repeat unit) | 45.2 Barrer | 734 Barrer | 434 Barrer | 37.8 Barrer | 87 Barrer |
| *c1c(C)c(C)c(N2C(=O)c3ccc(Oc4cc(C)c(Oc5ccc6c(c5)C(=O)N(*)C6=O)c(C)c4C)cc3C2=O)c(C)c1C (repeat unit) | 7.6 Barrer | 200 Barrer | 230 Barrer | 8.1 Barrer | 33 Barrer |
| *c1c(C)c2c(c(N3C(=O)c4ccc(-c5ccc6c(c5)C(=O)N(*)C6=O)cc4C3=O)c1C)C(C)(C)CC2 (repeat unit) | 23.9 Barrer | 329 Barrer | – | 22 Barrer | 83.4 Barrer |
